# According to US12729393B2, “Agent interaction effects determination” (priority 2020, dated 2026):
# Tested on: Escherichia coli reference strain K12-MG1655
# Assay: CombiANT self-interaction experiments (3 reservoirs filled with the same antibiotic)
# Type: cell-based
# Conditions: 3 biological replicates; Wilcoxon signed rank test
# Source text: FIG. 17 illustrates self-interaction experiments of the Escherichia coli reference strain K12-MG1655. FICi for all self-interactions for the 8 antibiotics AMP, CIP, CTX, GEN, FOF, NIT, MEC, TMP. Bars indicate average FICi values and standard deviation (SD) of 3 biological replicates.
# First, as controls, we performed self-interaction experiments, where the 3 culture container insert reservoirs were filled with the same antibiotic. […] Next, to verify that the CombiANT™ assay produced valid synergy quantifications, we ran an accuracy and precision study. We tested all pairwise antibiotic interactions in the two Gram-negative reference strains E. coli […] and P. aeruginosa PA14, and the Gram-positive S. aureus reference strain ATCC29213 against a panel of 4 antibiotics. The tested antibiotics, ampicillin (AMP), cefotaxime (CTX), ciprofloxacin (CIP), and gentamicin (GEN), spanned three distinct mechanisms of action and are commonly used in treatments of bacteremia and sepsis caused by these bacterial species. FICi indices were calculated for all 6 pair-wise interactions and all three strains (FIG. 18A).
row,Molecule,nature of self-interaction (FICi)
1,"CC1(C)S[C@@H]2[C@H](NC(=O)[C@H](N)c3ccccc3)C(=O)N2[C@H]1C(=O)O [AMP, ampicillin]",additive
2,"O=C(O)c1cn(C2CC2)c2cc(N3CCNCC3)c(F)cc2c1=O [CIP, ciprofloxacin]",additive
3,"CO/N=C(\C(=O)N[C@@H]1C(=O)N2C(C(=O)O)=C(COC(C)=O)CS[C@H]12)c1csc(N)n1 [CTX, cefotaxime]",additive
4,"C[C@@H]1O[C@@H]1P(=O)(O)O [FOF, fosfomycin]",additive
5,"CC1(C)S[C@@H]2[C@H](/N=C/N3CCCCCC3)C(=O)N2[C@H]1C(=O)O [MEC, mecillinam]",additive
6,"COc1cc(Cc2cnc(N)nc2N)cc(OC)c1OC [TMP, trimethoprim]",additive
7,gentamicin,additive
